Activity calls are given as the source filed them.
Experiments:
[1] = biological target: T1, High affinity choline transporter 1 (Homo sapiens, UniProt Q9GZV3); experiment: human choline transporter blockers, potency – cell-based, 5-point CRC, membrane potential dye, dose response (AID 504840); assay type: functional
T1 sequence (Q9GZV3 whole entry): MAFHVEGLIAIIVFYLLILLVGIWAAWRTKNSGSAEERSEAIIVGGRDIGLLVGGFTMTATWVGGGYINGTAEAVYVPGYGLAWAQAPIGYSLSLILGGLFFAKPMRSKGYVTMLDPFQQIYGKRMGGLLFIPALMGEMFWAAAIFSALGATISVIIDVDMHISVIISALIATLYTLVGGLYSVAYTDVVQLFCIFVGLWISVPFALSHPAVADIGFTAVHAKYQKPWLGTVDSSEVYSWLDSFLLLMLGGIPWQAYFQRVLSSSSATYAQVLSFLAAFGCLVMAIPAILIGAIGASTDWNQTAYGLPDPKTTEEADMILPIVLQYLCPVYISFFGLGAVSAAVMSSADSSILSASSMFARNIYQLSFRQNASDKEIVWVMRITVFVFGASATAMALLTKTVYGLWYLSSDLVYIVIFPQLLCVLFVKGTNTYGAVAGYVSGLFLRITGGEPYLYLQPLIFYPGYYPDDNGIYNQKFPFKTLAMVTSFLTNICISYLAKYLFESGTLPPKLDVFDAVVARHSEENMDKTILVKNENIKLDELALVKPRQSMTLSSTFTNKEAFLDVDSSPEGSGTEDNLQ

Coagulation factor XII = biological target: T2, Coagulation factor XII (Homo sapiens, UniProt P00748); assay type: functional;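 further: activated factor XIIa alpha cleaving a fluorogenic AMC peptide substrate; inhibitor potency from loss of enzyme activity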
T2 sequence (P00748 whole entry): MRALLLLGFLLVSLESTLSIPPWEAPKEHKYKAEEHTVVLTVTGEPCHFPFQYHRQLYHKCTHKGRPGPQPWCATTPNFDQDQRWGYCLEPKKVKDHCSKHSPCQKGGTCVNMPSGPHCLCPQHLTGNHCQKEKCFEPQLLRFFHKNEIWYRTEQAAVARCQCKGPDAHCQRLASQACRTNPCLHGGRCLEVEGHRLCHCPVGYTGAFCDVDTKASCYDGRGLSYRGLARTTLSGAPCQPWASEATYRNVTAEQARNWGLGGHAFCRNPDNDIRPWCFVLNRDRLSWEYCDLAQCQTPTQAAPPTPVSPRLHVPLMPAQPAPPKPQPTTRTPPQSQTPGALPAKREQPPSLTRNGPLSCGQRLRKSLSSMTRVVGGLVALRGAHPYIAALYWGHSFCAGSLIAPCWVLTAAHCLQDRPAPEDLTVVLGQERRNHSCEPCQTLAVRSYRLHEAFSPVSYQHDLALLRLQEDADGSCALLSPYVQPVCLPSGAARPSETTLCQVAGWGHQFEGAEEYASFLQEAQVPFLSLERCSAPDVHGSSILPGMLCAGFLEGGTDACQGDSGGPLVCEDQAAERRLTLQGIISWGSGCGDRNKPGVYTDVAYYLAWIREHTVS

[2] = biological target: T3, Alkaline phosphatase, tissue-nonspecific isozyme (Homo sapiens, UniProt P05186); experiment: potency against alkaline phosphatase TNAP – biochemical, luminescent, dose response, SAR follow-up (AID 1056)
T3 sequence (P05186 whole entry): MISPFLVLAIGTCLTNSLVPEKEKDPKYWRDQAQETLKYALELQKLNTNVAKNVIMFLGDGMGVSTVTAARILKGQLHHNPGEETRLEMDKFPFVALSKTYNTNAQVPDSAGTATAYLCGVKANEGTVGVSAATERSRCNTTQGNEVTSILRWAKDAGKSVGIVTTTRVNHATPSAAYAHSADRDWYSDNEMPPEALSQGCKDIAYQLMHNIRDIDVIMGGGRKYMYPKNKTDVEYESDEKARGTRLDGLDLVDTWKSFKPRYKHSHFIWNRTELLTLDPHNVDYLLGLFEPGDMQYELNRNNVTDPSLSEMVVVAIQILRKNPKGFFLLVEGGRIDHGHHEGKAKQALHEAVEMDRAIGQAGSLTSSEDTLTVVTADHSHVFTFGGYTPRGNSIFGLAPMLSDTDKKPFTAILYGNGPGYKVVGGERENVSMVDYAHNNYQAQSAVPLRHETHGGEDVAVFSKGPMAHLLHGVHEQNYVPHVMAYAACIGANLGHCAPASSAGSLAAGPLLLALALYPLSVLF

[3] = biological target: Glyceraldehyde-3-phosphate dehydrogenase (Homo sapiens, UniProt P04406)
[4] = viability of HCT116 lacking mutant beta-catenin – cell-based, human colon tumor, dose response (AID 1045); assay type: functional;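 further: HCT116 colon tumor cells with beta catenin knocked out; cells exposed to compound for 60 hours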
[5] = viability of PTEN-deleted HCT116 cells – cell-based, HCT116 PTEN knockout, dose response (AID 1047); assay type: functional;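 further: HCT116 colon tumor cells with PTEN knocked out; cells exposed to compound for 60 hours before readout; potency for loss of cell viability measured by luminescence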
[6] = viability loss in THP-1 monocytes – THP-1 cells, cytotoxicity control for Vif-APOBEC3G degradation inhibitor project, dose response (AID 1117359); assay type: functional; conditions: THP-1
HEK293 [7] = experiment: inhibition of NOD1-driven NF-kB reporter – cell-based, luminescence, uHTS, primary screen (AID 1578); assay type: functional; conditions: Homo sapiens
[8] = biological target: T4, Short transient receptor potential channel 4 (Mus musculus, UniProt Q9QUQ5); experiment: calcium entry via TRPC4 opening agents – cell-based, HEK293 TRPC4/mu-opioid, Fluo-4 calcium, dose response (AID 434937); assay type: functional
T4 sequence (Q9QUQ5 whole entry): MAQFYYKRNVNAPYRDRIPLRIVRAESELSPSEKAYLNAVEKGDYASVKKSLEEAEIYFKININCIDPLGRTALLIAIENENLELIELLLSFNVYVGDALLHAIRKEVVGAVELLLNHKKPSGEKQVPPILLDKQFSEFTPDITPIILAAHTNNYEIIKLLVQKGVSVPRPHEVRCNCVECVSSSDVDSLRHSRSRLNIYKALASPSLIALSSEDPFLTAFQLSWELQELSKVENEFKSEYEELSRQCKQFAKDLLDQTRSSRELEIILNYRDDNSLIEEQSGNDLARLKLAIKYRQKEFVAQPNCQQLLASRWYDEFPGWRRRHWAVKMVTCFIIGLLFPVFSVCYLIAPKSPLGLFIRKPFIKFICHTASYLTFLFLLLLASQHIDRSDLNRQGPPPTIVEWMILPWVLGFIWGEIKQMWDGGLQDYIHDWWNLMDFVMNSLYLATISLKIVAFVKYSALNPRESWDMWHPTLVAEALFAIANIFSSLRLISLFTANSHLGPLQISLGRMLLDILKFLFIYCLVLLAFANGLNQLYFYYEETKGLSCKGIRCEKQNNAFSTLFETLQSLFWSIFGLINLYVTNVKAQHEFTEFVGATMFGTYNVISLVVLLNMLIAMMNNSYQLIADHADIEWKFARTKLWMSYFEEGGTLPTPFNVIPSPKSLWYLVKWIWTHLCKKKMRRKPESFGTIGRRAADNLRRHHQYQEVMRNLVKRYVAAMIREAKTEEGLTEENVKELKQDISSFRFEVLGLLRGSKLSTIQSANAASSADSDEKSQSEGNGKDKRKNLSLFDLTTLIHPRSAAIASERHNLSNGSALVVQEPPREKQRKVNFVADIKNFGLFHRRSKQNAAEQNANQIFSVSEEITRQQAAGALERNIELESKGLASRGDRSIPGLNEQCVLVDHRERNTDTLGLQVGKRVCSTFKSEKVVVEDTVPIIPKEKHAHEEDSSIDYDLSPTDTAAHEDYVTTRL

HEK293 [9] = experiment: NOD2 signaling inhibitors in MDP-stimulated cells, cell-based, uHTS, luminescence (AID 2001); assay type: functional; conditions: Homo sapiens
HEK293 [10] = experiment: cells; assay type: functional, cell-based; conditions: Homo sapiens
Streptococcus = experiment: GAS UMAA2166 growth inhibition – luminescence, BacTiterGlo, counter-screen for streptokinase expression inhibitor project, dose response (AID 1915); assay type: functional, organism-based;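 further: potency for reduction of bacterial viability or growth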
HEK293 [11] = experiment: cells; assay type: functional, cell-based; conditions: Homo sapiens; remark: listed apart in the source
[12] = tested on: Streptococcus sp. 'group A'; experiment: Streptococcus pyogenes SK(-)GAS viability under kanamycin – luminescence, BacTiterGlo, confirmation, counter-screen for streptokinase expression inhibitor project, dose response (AID 1900); assay type: functional, organism-based
[13] = growth inhibition of PfATP4-mutant resistant parasites – NITD609-resistant line, SYBR Green, dry powder, dose response (AID 1159571); assay type: functional, cell-based;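 further: parasites synchronized at ring stage by sorbitol before testing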
[14] = Dd2 malaria parasite growth inhibition potency – SYBR Green, dry powder samples, dose response (AID 1159566); assay type: functional, cell-based;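 further: potency for growth inhibition with lower SYBR green DNA signal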
[15] = P. falciparum Dd2 growth inhibitors, dose response, SYBR Green, cherry-picked samples (AID 1159567); assay type: functional, cell-based
[16] = growth inhibition of yeast DHODH-expressing 3D7 parasites – SYBR Green, dry powder samples, dose response (AID 1159570); assay type: functional, cell-based;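 further: parasite growth measured after 72 hours of compound exposure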

Chain of Glyceraldehyde-3-phosphate dehydrogenase (P04406 whole entry): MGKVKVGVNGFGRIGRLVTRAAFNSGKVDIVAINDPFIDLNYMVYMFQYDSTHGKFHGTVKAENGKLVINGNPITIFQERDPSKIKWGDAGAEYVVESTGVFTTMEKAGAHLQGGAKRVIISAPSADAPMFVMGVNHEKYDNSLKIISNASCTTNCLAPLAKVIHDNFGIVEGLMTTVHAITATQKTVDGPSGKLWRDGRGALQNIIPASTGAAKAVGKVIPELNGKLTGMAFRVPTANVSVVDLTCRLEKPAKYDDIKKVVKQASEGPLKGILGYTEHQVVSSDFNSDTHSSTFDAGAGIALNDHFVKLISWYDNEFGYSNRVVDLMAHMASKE

CCN(CC)CCC(c1ccc2c(c1)OCO2)c1c(OC)cc(OC)c2c(-c3ccccc3)cc(=O)oc12 (centres undefined)
IC50 [1]: 18.2 µM (active)

COc1ccc(-c2csc3ncnc(N4CCN(CCO)CC4)c23)cc1
IC50 [1]: 13.8 µM (active)

Cc1ccc(S(=O)(=O)N2CCN(Cc3cc(C(C)C)ccc3O)CC2)cc1
IC50 (Coagulation factor XII): > 50 µM (inactive)

CC(NC(=O)c1cccc(S(=O)(=O)N2CCN(C)CC2)c1)C1CC2CCC1C2 (centres undefined)
IC50 [1]: 13.2 µM (active)

O=C(NCCN1CCc2ccccc2C1)C1CC(=O)N(C2CCCC2)C1 (centres undefined)
IC50 (Coagulation factor XII): > 50 µM (inactive)

COc1ccc(Br)cc1S(=O)(=O)Nc1ccon1
IC50 [2]: > 100 µM (inactive) | IC50 [3]: > 100 µM (not active)

Cc1nnc(NC(=O)c2c(F)c(F)c(F)c(F)c2F)s1
IC50 (Coagulation factor XII): > 50 µM (inactive)

CC1CCCCC1N=C(S)Nc1ccc(SC(F)F)cc1 (centres undefined)
IC50 [1]: 7.63 µM (active) | EC50 [4]: 19 µM (active) | EC50 [5]: 17.5 µM (active)

COc1ccc(OCCOC(=O)c2cc(S(=O)(=O)N3CCOCC3)c(Cl)cc2Cl)cc1
CC50 [6]: 23.9 µM (active)

O=c1c2cc(Br)ccc2nc(-c2ccc(Cl)cc2)n1O
EC50 (HEK293 [7]): 6.02 µM (active) | EC50 [8]: 6.68 µM (active) | IC50 (HEK293 [9]): 14.2 µM (inactive) | IC50 (HEK293 [10]): > 20 µM (inactive) | IC50 [1]: 5.01 µM (active) | EC50 (Streptococcus): 2.6 µM (active) | IC50 (HEK293 [11]): > 20 µM (inactive) | EC50 [12]: 1.24 µM (active)

NNC(=O)CN1C(=O)CN=C(c2ccccc2)c2cc(Br)ccc21
IC50 (Coagulation factor XII): > 50 µM (inactive)

CCOC(=O)Nc1cc(C)c(Cl)cc1OC
CC50 [6]: > 40 µM (active)

COC(=O)c1ccc(OC)c(S(=O)(=O)Nc2cnc3ccccc3c2)c1
IC50 [2]: > 10 µM (inactive) | IC50 [3]: > 10 µM (inconclusive)

CN(C)/C=C1\C=C(c2ccccc2)OC1=O
IC50 (Coagulation factor XII): > 50 µM (inactive)

C[C@@H]1CN([C@@H](C)CO)C(=O)c2cccc(NC(=O)Nc3ccccc3)c2O[C@@H]1CN(C)C(=O)Nc1ccccc1
AC50 [13]: 0.216 µM (active) | AC50 [14]: 0.204 µM (active) | AC50 [15]: 0.37 µM (active) | AC50 [16]: 1.06 µM (active)

— ChEMBL document CHEMBL1201862, “PubChem BioAssay data set” (2004)
